Among the data in ChEMBL document CHEMBL4024706 (Eur J Med Chem, 2017) are Activity values, retold here.

Experiment [1] deals with Tyrosine-protein kinase CSK (Homo sapiens) (UniProt P41240). The experiment is described as follows: Inhibition of wild-type human full length CSK (M1 to L450 residues) expressed in bacterial expression system assessed as residual activity at 1 uM by Kinomescan method relative to control.
Experiment [2] addresses SRSF protein kinase 1 (Homo sapiens) (UniProt Q96SB4). Nature of the experiment: Inhibition of wild-type human full length SRPK1 (M1 to S655 residues) expressed in bacterial expression system assessed as residual activity at 1 uM by Kinomescan method relative to control.
For experiment [3], the target named is Interleukin-1 receptor-associated kinase 1 (Homo sapiens) (UniProt P51617). The experiment is described as follows: Inhibition of wild-type human partial length IRAK1 (R194 to S712 residues) expressed in mammalian expression system assessed as residual activity at 1 uM by Kinomescan method relative to control.
For experiment [4], the system named is Mast/stem cell growth factor receptor Kit (Homo sapiens), P10721 [V559D]. Nature of the experiment: Inhibition of human partial length KIT V559D mutant (Y545 to D952 residues) expressed in bacterial expression system assessed as residual activity at 1 uM by Kinomescan method relative to control.
In experiment [5] the target is Mitogen-activated protein kinase 11 (Homo sapiens) (UniProt Q15759). The experiment is described as follows: Inhibition of wild-type human full length p38-beta (M1 to Q364 residues) expressed in bacterial expression system assessed as residual activity at 1 uM by Kinomescan method relative to control.
The target in experiment [6] is Inhibitor of nuclear factor kappa-B kinase subunit beta (Homo sapiens) (UniProt O14920). The experiment is described as follows: Inhibition of wild-type human full length IKK-beta (M1 to S756 residues) expressed in mammalian expression system assessed as residual activity at 1 uM by Kinomescan method relative to control.
Experiment [7] deals with Serine/threonine-protein kinase 25 (Homo sapiens) (UniProt O00506). Nature of the experiment: Inhibition of wild-type human partial length YSK1 (V14 to H295 residues) expressed in bacterial expression system assessed as residual activity at 1 uM by Kinomescan method relative to control.
The target of experiment [8] is G protein-coupled receptor kinase 3 (Homo sapiens) (UniProt P35626). Nature of the experiment: Inhibition of wild-type human full length GRK3 (M1 to L688 residues) expressed in mammalian expression system assessed as residual activity at 1 uM by Kinomescan method relative to control.
In experiment [9] the target is Serine/threonine-protein kinase VRK2 (Homo sapiens) (UniProt Q86Y07). Nature of the experiment: Inhibition of wild-type human partial length VRK2 (M1 to T336 residues) expressed in mammalian expression system assessed as residual activity at 1 uM by Kinomescan method relative to control.
In experiment [10] the target is Receptor tyrosine-protein kinase erbB-4 (Homo sapiens) (UniProt Q15303). Nature of the experiment: Inhibition of wild-type human partial length ERBB4 (L690 to K994 residues) expressed in bacterial expression system assessed as residual activity at 1 uM by Kinomescan method relative to control.
The target of experiment [11] is Mitogen-activated protein kinase kinase kinase 19 (Homo sapiens) (UniProt Q56UN5). The experiment is described as follows: Inhibition of wild-type human partial length YSK4 (T1019 to H1328 residues) expressed in mammalian expression system assessed as residual activity at 1 uM by Kinomescan method relative to control.
Experiment [12] addresses Aurora kinase B (Homo sapiens) (UniProt Q96GD4). The experiment is described as follows: Inhibition of wild-type human partial length AURKB (D25 to A303 residues) expressed in mammalian expression system assessed as residual activity at 1 uM by Kinomescan method relative to control.
Experiment [13] has as its target Myosin-IIIb (Homo sapiens) (UniProt Q8WXR4). The experiment is described as follows: Inhibition of wild-type human partial length MYO3B (M1 to D357 residues) expressed in bacterial expression system assessed as residual activity at 1 uM by Kinomescan method relative to control.
The target in experiment [14] is Serine/threonine-protein kinase SBK1 (Homo sapiens) (UniProt Q52WX2). Nature of the experiment: Inhibition of wild-type human partial length SBK1 (P23 to P348 residues) expressed in mammalian expression system assessed as residual activity at 1 uM by Kinomescan method relative to control.
For experiment [15], the target named is Bone morphogenetic protein receptor type-1B (Homo sapiens) (UniProt O00238). The experiment is described as follows: Inhibition of wild-type human partial length BMPR1B (D178 to L502 residues) expressed in mammalian expression system assessed as residual activity at 1 uM by Kinomescan method relative to control.
Experiment [16] concerns the target Mitogen-activated protein kinase kinase kinase 1 (Homo sapiens) (UniProt Q13233). Nature of the experiment: Inhibition of wild-type human partial length MAP3K1 (L1202 to W1512 residues) expressed in mammalian expression system assessed as residual activity at 1 uM by Kinomescan method relative to control.

Chain of Serine/threonine-protein kinase VRK2 (Homo sapiens) (Q86Y07 whole entry, the tested form may be a part): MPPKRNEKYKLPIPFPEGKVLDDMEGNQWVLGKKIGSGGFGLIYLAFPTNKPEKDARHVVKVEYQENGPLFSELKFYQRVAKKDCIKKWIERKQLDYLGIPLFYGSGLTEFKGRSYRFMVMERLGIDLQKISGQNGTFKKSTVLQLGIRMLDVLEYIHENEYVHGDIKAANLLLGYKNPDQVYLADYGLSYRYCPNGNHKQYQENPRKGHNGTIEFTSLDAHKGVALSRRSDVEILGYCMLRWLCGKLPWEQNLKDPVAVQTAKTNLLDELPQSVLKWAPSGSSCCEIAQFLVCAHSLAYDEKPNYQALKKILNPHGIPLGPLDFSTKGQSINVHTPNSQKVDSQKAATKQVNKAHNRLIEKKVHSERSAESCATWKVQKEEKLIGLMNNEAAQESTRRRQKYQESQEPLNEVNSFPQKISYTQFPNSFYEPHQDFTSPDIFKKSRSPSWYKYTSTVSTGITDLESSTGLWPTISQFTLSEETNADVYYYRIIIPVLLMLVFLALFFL
Chain of Bone morphogenetic protein receptor type-1B (Homo sapiens) (O00238 whole entry, the tested form may be a part): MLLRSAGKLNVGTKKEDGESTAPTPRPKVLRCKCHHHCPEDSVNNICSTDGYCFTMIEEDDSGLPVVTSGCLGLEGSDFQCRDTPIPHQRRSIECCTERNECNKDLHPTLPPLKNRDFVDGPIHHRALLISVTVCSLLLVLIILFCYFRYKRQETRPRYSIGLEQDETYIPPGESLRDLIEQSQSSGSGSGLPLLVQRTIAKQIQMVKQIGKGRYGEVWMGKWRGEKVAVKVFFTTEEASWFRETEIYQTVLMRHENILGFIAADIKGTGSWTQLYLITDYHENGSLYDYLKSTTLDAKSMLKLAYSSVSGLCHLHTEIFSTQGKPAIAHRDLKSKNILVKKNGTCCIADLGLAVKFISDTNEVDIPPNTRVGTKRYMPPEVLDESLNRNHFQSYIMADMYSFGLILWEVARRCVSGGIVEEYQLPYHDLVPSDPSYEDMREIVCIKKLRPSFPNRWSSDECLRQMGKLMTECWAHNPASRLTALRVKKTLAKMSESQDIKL
Chain of G protein-coupled receptor kinase 3 (Homo sapiens) (P35626 whole entry, the tested form may be a part): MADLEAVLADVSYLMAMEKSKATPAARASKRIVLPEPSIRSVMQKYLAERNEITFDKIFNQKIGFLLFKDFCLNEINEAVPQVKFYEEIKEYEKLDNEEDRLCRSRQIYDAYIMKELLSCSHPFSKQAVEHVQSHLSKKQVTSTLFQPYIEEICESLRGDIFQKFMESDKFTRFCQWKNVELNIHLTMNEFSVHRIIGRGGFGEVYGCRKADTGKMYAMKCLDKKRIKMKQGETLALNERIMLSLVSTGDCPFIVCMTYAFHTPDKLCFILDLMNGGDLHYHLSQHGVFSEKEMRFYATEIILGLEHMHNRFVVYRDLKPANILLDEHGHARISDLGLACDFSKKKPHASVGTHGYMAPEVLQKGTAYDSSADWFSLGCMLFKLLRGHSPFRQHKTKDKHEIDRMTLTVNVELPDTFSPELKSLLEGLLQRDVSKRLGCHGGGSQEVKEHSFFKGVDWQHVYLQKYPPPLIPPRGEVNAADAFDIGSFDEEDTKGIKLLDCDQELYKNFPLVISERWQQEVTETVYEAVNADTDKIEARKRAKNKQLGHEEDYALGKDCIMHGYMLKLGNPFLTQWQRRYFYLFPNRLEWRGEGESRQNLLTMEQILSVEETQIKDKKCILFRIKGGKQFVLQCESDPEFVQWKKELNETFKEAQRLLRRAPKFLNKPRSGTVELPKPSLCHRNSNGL
Chain of SRSF protein kinase 1 (Homo sapiens) (Q96SB4 whole entry, the tested form may be a part): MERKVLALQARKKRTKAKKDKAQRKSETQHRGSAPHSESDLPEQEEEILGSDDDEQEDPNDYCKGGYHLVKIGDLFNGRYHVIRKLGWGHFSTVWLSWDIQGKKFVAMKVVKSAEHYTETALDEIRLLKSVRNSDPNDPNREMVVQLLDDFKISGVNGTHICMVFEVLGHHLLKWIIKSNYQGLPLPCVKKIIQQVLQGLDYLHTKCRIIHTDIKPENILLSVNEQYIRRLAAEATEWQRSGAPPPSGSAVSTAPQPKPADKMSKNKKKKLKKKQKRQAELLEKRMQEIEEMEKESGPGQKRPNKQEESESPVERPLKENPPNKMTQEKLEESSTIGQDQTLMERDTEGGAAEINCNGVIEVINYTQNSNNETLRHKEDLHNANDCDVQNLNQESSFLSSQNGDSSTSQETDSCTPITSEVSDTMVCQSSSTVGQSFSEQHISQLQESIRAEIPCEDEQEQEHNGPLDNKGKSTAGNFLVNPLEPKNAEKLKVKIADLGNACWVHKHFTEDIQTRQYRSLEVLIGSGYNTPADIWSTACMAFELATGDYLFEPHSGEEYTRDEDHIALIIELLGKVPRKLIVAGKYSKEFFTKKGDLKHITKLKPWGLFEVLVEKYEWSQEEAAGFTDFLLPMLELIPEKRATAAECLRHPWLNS
Chain of Myosin-IIIb (Homo sapiens) (Q8WXR4 whole entry, the tested form may be a part): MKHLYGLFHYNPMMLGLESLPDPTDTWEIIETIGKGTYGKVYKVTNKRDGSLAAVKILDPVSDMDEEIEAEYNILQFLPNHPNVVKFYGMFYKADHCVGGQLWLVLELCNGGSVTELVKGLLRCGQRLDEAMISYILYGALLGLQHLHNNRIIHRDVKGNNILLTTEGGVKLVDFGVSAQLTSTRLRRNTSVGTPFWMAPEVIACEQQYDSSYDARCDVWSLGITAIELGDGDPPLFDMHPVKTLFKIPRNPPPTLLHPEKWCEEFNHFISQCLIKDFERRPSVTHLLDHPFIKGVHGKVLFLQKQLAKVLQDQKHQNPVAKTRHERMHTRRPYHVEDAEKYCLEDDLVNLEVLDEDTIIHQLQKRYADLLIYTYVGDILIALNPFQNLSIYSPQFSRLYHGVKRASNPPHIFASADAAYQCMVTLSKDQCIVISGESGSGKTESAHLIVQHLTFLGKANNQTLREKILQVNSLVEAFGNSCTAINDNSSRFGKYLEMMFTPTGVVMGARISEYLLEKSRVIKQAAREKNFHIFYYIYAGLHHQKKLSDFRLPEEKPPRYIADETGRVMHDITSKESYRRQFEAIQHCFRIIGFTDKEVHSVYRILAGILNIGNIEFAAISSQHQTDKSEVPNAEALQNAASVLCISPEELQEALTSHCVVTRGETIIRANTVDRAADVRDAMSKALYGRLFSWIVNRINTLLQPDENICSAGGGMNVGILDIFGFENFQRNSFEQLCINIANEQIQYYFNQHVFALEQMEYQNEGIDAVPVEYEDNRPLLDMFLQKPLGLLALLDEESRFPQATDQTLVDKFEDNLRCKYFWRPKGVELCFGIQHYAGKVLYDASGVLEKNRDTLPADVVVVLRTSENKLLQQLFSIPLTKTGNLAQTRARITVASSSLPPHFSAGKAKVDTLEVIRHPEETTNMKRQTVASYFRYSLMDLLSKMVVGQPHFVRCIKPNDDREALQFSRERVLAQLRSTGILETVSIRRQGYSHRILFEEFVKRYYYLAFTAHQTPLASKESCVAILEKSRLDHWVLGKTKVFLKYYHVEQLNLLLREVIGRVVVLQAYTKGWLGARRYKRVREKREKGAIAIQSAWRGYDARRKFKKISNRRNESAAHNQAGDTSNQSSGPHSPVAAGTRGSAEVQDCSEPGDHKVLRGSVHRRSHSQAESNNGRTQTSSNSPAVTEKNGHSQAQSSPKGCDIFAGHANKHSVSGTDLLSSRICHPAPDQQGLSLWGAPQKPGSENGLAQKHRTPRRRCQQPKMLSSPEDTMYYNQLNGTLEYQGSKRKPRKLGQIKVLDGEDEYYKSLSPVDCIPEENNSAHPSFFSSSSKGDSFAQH
Chain of Mitogen-activated protein kinase kinase kinase 19 (Homo sapiens) (Q56UN5 whole entry, the tested form may be a part): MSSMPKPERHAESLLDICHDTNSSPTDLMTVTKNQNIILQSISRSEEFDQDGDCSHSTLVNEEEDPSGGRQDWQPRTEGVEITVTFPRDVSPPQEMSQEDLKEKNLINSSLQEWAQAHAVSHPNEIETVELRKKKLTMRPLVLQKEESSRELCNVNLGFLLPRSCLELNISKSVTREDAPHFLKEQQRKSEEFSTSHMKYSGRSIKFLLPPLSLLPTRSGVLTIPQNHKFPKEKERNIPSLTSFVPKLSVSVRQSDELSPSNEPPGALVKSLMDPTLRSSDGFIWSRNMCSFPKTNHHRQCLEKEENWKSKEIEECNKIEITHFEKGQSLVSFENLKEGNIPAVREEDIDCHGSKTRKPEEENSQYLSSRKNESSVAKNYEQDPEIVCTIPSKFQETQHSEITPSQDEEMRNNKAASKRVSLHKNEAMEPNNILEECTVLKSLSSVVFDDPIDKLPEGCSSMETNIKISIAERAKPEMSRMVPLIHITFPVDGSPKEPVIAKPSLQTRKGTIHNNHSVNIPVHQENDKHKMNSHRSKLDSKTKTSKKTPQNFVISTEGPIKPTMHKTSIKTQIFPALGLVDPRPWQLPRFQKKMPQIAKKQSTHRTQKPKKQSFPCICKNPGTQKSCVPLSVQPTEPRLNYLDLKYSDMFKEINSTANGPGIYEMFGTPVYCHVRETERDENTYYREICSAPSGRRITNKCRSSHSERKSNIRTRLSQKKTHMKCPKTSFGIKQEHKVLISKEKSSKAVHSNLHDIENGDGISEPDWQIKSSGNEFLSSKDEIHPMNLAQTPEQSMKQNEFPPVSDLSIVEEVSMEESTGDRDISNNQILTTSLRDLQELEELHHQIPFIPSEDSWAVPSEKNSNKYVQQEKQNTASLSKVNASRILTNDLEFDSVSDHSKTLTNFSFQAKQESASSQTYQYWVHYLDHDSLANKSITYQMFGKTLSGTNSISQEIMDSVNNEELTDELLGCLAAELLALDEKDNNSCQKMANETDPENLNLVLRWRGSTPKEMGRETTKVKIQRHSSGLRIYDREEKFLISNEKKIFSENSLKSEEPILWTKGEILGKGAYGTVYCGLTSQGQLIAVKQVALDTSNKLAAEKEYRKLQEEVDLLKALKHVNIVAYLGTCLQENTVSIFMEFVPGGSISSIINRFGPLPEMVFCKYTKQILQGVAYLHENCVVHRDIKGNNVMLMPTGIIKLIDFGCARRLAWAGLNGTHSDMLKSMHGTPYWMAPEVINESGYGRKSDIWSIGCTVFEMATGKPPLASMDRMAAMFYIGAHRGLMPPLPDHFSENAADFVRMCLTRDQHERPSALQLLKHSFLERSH

On to `C=CC(=O)Nc1cc(Nc2cc(-c3cccc(NC(=O)c4ccc(C(C)(C)C)cc4)c3C)cn(C)c2=O)ccc1C(=O)N1CCOCC1`, for which the Activity in experiment [1] is 100%; in [2], 100%; in experiment [3], 100%; in experiment [4], 93%; in experiment [5], 100%; in [6] it was 100%. In addition, the Activity in experiment [7] was 96%; in [8], 73%; in [9] it was 100%; in [10], 95%; in [11], 100%; in [12], 98%. Moreover, the Activity in experiment [13] is 86%; in experiment [14], 100%; in experiment [15], 100%; in [16], 91%.
